From patent US10273222B2 (CELGENE QUANTICEL RESEARCH, INC., priority 2013, dated 2019)

Experiments:
Assay type in all cases: biochemical
FBXL10 = FBXL10 (Homo sapiens (Human), UniProt Q8NHM5); experiment: FBXL10 in vitro enzyme inhibition assay (AlphaScreen)
Experimental: Reaction product was determined quantitatively by AlphaScreen detection after the addition of detection reagents anti-H3K36me1 antibody, AlphaScreen® Streptavidin-coated Donor beads, and AlphaScreen® Protein A Acceptor beads in 50 mM HEPES, pH7.3, 10 mM NaCl, 0.005% Brij35, 5 mM EDTA, 2 mg/ml BSA to final 10 μg/ml beads.
Plates were incubated at room temperature for 40 minutes, followed by addition of 3 μl of 50 μg/ml AlphaScreen® Streptavidin-coated Donor beads and AlphaScreen® Protein A Acceptor beads in 50 mM HEPES, pH7.3, 10 mM NaCl, 0.005% Brij35, 5 mM EDTA, 2 mg/ml BSA. Plates were read by EnVisionMultilabel Reader in AlphaScreen mode after a minimum of 2 hour or up to overnight incubation at room temperature. The AlphaScreen signal for each well was used to determine inhibition constant (IC50).

JMJD2C = JMJD2C (Homo sapiens (Human), UniProt Q9H3R0); experiment: JMJD2C in vitro enzyme inhibition assay (TR-FRET)
Sequence of JMJD2C (Q9H3R0 2-372): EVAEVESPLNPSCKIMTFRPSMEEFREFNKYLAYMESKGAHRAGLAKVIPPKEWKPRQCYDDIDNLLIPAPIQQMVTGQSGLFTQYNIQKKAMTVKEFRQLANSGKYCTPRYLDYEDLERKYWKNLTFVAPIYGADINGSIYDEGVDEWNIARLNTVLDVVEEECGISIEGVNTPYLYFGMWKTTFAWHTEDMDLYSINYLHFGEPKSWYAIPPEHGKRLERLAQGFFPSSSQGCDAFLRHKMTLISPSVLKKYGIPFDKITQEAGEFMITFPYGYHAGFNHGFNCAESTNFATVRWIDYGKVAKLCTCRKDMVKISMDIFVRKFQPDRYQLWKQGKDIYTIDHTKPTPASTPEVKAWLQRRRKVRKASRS

Jarid1B = Jarid1B (Homo sapiens (Human), UniProt Q9UGL1); experiment: Jarid1B in vitro enzyme inhibition assay (TR-FRET)
Sequence of Jarid1B (Q9UGL1 2-751): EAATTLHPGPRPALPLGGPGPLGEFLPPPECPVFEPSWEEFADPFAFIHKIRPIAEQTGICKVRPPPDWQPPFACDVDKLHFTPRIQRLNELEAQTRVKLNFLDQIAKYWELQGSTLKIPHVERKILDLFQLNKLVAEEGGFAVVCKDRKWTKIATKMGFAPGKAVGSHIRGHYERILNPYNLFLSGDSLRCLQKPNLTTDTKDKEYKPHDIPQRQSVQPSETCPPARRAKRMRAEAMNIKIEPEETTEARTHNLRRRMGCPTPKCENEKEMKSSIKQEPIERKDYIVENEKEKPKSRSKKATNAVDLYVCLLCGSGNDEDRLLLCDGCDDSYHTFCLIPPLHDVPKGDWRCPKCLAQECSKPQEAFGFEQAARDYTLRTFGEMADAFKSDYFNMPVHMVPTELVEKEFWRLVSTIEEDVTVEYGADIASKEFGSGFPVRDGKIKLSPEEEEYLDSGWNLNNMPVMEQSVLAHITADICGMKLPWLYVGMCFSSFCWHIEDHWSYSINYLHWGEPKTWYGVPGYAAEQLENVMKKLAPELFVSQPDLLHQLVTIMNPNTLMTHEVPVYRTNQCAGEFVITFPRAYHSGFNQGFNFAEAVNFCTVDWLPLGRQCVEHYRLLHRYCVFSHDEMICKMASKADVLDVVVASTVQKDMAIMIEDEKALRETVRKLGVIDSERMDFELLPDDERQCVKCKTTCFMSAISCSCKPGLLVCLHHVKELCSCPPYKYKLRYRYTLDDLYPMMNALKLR
Experimental: This assay determines the ability of a test compound to inhibit Jarid1A, Jarid1B, JMJD2C, and JMJD2A demethylase activity.
The ability of test compounds to inhibit the activity of Jarid1B was determined in 384-well plate format under the following reaction conditions: 0.8 nM Jarid1B, 300 nM H3K4me3-biotin labeled peptide (Anaspec cat #64357), 2 μM alpha-ketoglutaric acid in assay buffer of 50 mM HEPES, pH7.3, 0.005% Brij35, 0.5 mM TCEP, 0.2 mg/ml BSA, 50 μM sodium L-ascorbate, and 2 μM ammonium iron(II) sulfate. Reaction product was determined quantitatively by TR-FRET after the addition of detection reagent Phycolink Streptavidin-allophycocyanin (Prozyme) and Europium-anti-mono- or di-methylated histone H3 lysine 4 (H3K4me1-2) antibody (PerkinElmer) in the presence of 5 mM EDTA in LANCE detection buffer (PerkinElmer) at a final concentration of 25 nM and 1 nM, respectively.
The assay reaction was initiated by the following: 2 μl of the mixture of 900 nM H3K4me3-biotin labeled peptide and 6 μM alpha-ketoglutaric acid with 2 μl of 11-point serial diluted inhibitor in 3% DMSO was added to each well of the plate, followed by the addition of 2 μl of 2.4 nM Jarid1B to initiate the reaction. The reaction mixture was incubated at room temperature for 30 minutes, and terminated by the addition of 6 μl of 5 mM EDTA in LANCE detection buffer containing 50 nM Phycolink Streptavidin-allophycocyanin and 2 nM Europium-anti-H3K4me1-2 antibody. Plates were read by EnVisionMultilabel Reader in TR-FRET mode (excitation at 320 nm, emission at 615 nm and 665 nm) after 1 hour incubation at room temperature. A ratio was calculated (665/615) for each well and fitted to determine inhibition constant (IC50).

Jarid1A = Jarid1A (Homo sapiens (Human), UniProt P29375); experiment: Jarid1A in vitro enzyme inhibition assay (TR-FRET)
Sequence of Jarid1A (P29375 1-1090): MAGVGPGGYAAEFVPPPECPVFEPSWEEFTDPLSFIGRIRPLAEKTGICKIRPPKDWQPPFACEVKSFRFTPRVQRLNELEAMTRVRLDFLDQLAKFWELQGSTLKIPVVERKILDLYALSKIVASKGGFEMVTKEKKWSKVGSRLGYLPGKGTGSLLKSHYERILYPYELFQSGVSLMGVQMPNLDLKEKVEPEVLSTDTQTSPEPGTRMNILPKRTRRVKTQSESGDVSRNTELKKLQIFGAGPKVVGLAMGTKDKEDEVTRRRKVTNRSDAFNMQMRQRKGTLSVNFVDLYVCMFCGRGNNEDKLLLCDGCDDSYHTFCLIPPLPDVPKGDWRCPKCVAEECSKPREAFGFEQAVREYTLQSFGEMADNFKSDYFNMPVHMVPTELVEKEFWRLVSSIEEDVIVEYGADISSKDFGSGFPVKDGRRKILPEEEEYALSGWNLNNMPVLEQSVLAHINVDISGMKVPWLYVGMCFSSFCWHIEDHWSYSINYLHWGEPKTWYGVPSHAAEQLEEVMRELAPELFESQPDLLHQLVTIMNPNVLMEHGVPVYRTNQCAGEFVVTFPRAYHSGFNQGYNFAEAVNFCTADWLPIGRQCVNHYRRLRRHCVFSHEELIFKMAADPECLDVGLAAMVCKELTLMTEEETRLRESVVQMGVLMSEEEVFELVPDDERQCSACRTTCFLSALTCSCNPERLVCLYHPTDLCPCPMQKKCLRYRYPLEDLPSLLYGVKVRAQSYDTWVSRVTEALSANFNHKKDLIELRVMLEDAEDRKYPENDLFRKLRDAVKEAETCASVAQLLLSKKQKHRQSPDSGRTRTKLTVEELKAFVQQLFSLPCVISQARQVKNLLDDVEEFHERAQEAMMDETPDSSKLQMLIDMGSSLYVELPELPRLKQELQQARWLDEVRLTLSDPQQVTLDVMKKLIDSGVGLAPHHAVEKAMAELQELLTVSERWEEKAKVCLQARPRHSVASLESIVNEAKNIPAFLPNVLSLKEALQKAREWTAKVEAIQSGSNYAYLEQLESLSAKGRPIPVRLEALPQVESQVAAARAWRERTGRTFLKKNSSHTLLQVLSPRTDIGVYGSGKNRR
Text: The enzymatic assay of Jarid1A activity is based upon Time Resolved-Fluorescence Resonance Energy Transfer (TR-FRET) detection.

Sequence of FBXL10 (Q8NHM5 1-650): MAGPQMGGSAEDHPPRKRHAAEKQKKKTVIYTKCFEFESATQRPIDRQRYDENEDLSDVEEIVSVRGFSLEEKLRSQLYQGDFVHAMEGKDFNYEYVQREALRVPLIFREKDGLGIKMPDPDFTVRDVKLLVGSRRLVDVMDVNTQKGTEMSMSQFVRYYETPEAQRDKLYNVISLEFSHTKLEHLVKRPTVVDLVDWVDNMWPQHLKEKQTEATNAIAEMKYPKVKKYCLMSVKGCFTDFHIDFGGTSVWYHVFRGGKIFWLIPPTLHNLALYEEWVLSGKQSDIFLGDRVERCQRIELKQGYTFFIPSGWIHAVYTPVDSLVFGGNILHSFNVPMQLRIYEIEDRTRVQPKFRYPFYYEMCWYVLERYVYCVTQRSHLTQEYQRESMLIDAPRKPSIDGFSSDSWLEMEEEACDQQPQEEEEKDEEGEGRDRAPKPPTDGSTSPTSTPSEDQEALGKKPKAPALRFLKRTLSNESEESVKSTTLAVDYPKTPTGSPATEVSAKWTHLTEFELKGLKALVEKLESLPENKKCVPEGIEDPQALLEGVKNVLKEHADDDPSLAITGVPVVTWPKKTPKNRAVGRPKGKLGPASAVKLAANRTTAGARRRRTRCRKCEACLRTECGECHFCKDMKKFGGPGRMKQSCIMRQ

SMILES	IC50 (FBXL10) [nM]	IC50 (JMJD2C) [nM]	IC50 (Jarid1B) [nM]	IC50 (Jarid1A) [nM]
CN1CCOC(Cn2cnc(-c3cc(C(=O)O)ccn3)c2)C1 (stereo not drawn) [Example 54, 2-{1-[(4-methylmorpholin-2-yl)methyl]-1H-imidazol-4-yl}pyridine-4-carboxylic acid]	≤ 100	≤ 100	≤ 100	≤ 100
Cc1cc(Cl)ccc1-c1c(-c2cc(C(=O)O)ccn2)ncn1C [Example 26, 2-[5-(4-chloro-2-methylphenyl)-1-methyl-1H-imidazol-4-yl]pyridine-4-carboxylic acid]		1000 to 10000	100 to 1000	≤ 100
Cn1cnc(-c2cc(C(=O)O)ccn2)c1-c1ccc(C(C)(C)C)cc1 [Example 9, 2-[5-(4-tert-butylphenyl)-1-methyl-1H-imidazol-4-yl]pyridine-4-carboxylic acid]		1000 to 10000	100 to 1000	100 to 1000
CN(C)CCn1cnc(-c2cc(C(=O)O)ccn2)c1-c1ccc(Cl)c(F)c1 [Example 39, 2-{5-(4-chloro-3-fluorophenyl)-1-[2-(dimethylamino)ethyl]-1H-imidazol-4-yl}pyridine-4-carboxylic acid]	≤ 100	≤ 100	≤ 100	≤ 100
Cn1cnc(-c2cc(C(=O)O)ccn2)c1-c1cccc(CO)c1 [Example 11, 2-{5-[3-(hydroxymethyl)phenyl]-1-methyl-1H-imidazol-4-yl}pyridine-4-carboxylic acid]	100 to 1000	1000 to 10000	100 to 1000	100 to 1000
Cn1cnc(-c2cc(C(=O)O)ccn2)c1-c1ccc(Cl)c(C(F)(F)F)c1 [Example 31, 2-{5-[4-chloro-3-(trifluoromethyl)phenyl]-1-methyl-1H-imidazol-4-yl}pyridine-4-carboxylic acid]	100 to 1000	100 to 1000	≤ 100	≤ 100
CNC(=O)c1cccc(-c2c(-c3cc(C(=O)O)ccn3)ncn2C)c1 [Example 10, 2-{1-methyl-5-[3-(methylcarbamoyl)phenyl]-1H-imidazol-4-yl}pyridine-4-carboxylic acid]		1000 to 10000	100 to 1000	100 to 1000
CCOc1cc(Cl)ccc1-c1c(-c2cc(C(=O)O)ccn2)ncn1C [Example 32, 2-[5-(4-chloro-2-ethoxyphenyl)-1-methyl-1H-imidazol-4-yl]pyridine-4-carboxylic acid]	100 to 1000	1000 to 10000	≤ 100	≤ 100
CN(C)CCCn1cnc(-c2cc(C(=O)O)ccn2)c1 [Example 42, 2-{1-[3-(dimethylamino)propyl]-1H-imidazol-4-yl}pyridine-4-carboxylic acid]		≤ 100	≤ 100	≤ 100
Cn1cnc(-c2cc(C(=O)O)ccn2)c1-c1ccc(C2(CO)CC2)cc1 [Example 17, 2-(5-{4-[1-(hydroxymethyl)cyclopropyl]phenyl}-1-methyl-1H-imidazol-4-yl)pyridine-4-carboxylic acid]		100 to 1000	≤ 100	≤ 100
O=C(O)c1ccnc(-c2cn(CCNCc3ccccc3C(F)(F)F)cn2)c1 [Example 75, 2-[1-[2-[[2-(trifluoromethyl)phenyl]methylamino]ethyl]imidazol-4-yl]pyridine-4-carboxylic acid]		≤ 100	≤ 100	≤ 100
Cn1cnc(-c2cc(C(=O)O)ccn2)c1-c1ccc(C2(C(F)(F)F)CC2)cc1 [Example 34, 2-(1-methyl-5-{4-[1-(trifluoromethyl)cyclopropyl]phenyl}-1H-imidazol-4-yl)pyridine-4-carboxylic acid]		100 to 1000	≤ 100	≤ 100
COCC1(c2ccc(-c3c(-c4cc(C(=O)O)ccn4)ncn3C)cc2)CC1 [Example 25, 2-(5-{4-[1-(methoxymethyl)cyclopropyl]phenyl}-1-methyl-1H-imidazol-4-yl)pyridine-4-carboxylic acid]		1000 to 10000	≤ 100	≤ 100
O=C(O)c1ccnc(-c2cn(CCN3CCOCC3)cn2)c1 [Example 45, 2-{1-[2-(morpholin-4-yl)ethyl]-1H-imidazol-4-yl}pyridine-4-carboxylic acid]		> 10000	100 to 1000	1000 to 10000
CCCCOc1cc(F)ccc1-c1c(-c2cc(-c3nn[nH]n3)ccn2)ncn1C [Example 149, 2-[5-(2-butoxy-4-fluorophenyl)-1-methylimidazol-4-yl]-4-(2H-tetrazol-5-yl)pyridine]	≤ 100	1000 to 10000		
CC(Cn1cnc(-c2cc(C(=O)O)ccn2)c1)N1CCCC1 (stereo not drawn) [Example 61, 2-{1-[2-(pyrrolidin-1-yl)propyl]-1H-imidazol-4-yl}pyridine-4-carboxylic acid]		≤ 100	≤ 100	≤ 100

Continued, values first:

IC50 (FBXL10) [nM]	IC50 (JMJD2C) [nM]	IC50 (Jarid1B) [nM]	IC50 (Jarid1A) [nM]	SMILES
≤ 100	≤ 100	≤ 100	≤ 100	O=C(O)c1ccnc(-c2cn(CCN3Cc4ccccc4C3)cn2)c1 [Example 76, 2-[1-[2-(1,3-dihydroisoindol-2-yl)ethyl]imidazol-4-yl]pyridine-4-carboxylic acid]
≤ 100	≤ 100	≤ 100	≤ 100	O=C(O)c1ccnc(-c2cn(CCN3Cc4cccc(Cl)c4C3)cn2)c1 [Example 81, 2-[1-[2-(4-chloro-1,3-dihydroisoindol-2-yl)ethyl]imidazol-4-yl]pyridine-4-carboxylic acid]
≤ 100	1000 to 10000			c1ccc2c(c1)CC(Cn1cnc(-c3cc(-c4nn[nH]n4)ccn3)c1)C2 [Example 147, 2-[1-(2,3-dihydro-1H-inden-2-ylmethyl)imidazol-4-yl]-4-(2H-tetrazol-5-yl)pyridine]
	≤ 100	≤ 100	≤ 100	COc1ccc(CCn2cnc(-c3cc(C(=O)O)ccn3)c2)cc1 [Example 94, 2-[1-[2-(4-methoxyphenyl)ethyl]imidazol-4-yl]pyridine-4-carboxylic acid]
≤ 100	1000 to 10000			FC(F)(F)COc1ccccc1Cn1cnc(-c2cc(-c3nn[nH]n3)ccn2)c1 [Example 152, 4-(2H-tetrazol-5-yl)-2-[1-[[2-(2,2,2-trifluoroethoxy)phenyl]methyl]imidazol-4-yl]pyridine]
100 to 1000	1000 to 10000			CC(=O)OCn1nnc(-c2ccnc(-c3cn(Cc4ccccc4Cl)cn3)c2)n1 [Example 167, (5-(2-(1-(2-chlorobenzyl)-1H-imidazol-4-yl)pyridin-4-yl)-2H-tetrazol-2-yl)methyl acetate]
100 to 1000	1000 to 10000			Clc1ccc(-c2c(-c3cc(-c4nn[nH]n4)ccn3)ncn2CCc2ccccc2Cl)cc1 [Example 133, 2-[5-(4-chlorophenyl)-1-[2-(2-chlorophenyl)ethyl]imidazol-4-yl]-4-(2H-tetrazol-5-yl)pyridine]
≤ 100	1000 to 10000			CCOc1ccccc1CCn1cnc(-c2cc(-c3nn[nH]n3)ccn2)c1 [Example 128, 2-[1-[2-(2-ethoxyphenyl)ethyl]imidazol-4-yl]-4-(2H-tetrazol-5-yl)pyridine]
≤ 100	1000 to 10000			c1ccc2c(Cn3cnc(-c4cc(-c5nn[nH]n5)ccn4)c3)cccc2c1 [Example 155, 2-[1-(naphthalen-1-ylmethyl)imidazol-4-yl]-4-(2H-tetrazol-5-yl)pyridine]
